Test results reported in ChEMBL document CHEMBL4177591, “Synthesis and evaluation of the inhibitory activity of the four stereoisomers of the potent and selective human γ-glutamyl transpeptidase inhibitor GGsTop” (Bioorg Med Chem Lett, 2017).
Calls of active or inactive are those of the source. The rule behind the calls is not given here.

Assays:
[1] = species: Homo sapiens; test: Inhibition of human GGT assessed as inactivation rate constant using gamma-Glu-AMC as substrate measured for 10 mins by fluorescence assay
[2] = species: Homo sapiens; test: Inhibition of human GGT at 0.1 mM using gamma-Glu-AMC as substrate measured for 10 mins by fluorescence assay

| Structure (SMILES) | inhibition [1] | K [2] | other results |
| --- | --- | --- | --- |
| CO[P@@](=O)(CC[C@H](N)C(=O)O)Oc1cccc(CC(=O)O)c1 | inactive | – | – |
| CO[P@](=O)(CC[C@H](N)C(=O)O)Oc1cccc(CC(=O)O)c1 | – | 174 M⁻¹ s⁻¹ | – |
| CO[P@](=O)(CC[C@@H](N)C(=O)O)Oc1cccc(CC(=O)O)c1 | – | 21.5 M⁻¹ s⁻¹ | – |
| CO[P@@](=O)(CC[C@@H](N)C(=O)O)Oc1cccc(CC(=O)O)c1 | inactive | – | – |
| COP(=O)(CCC(N)C(=O)O)Oc1cccc(CC(=O)O)c1 (stereo not given) | – | – | K [1]: 51 M⁻¹ s⁻¹ |
